System: Mus musculus
Test: Antiinflammatory activity in topically dosed CD1 mouse assessed as inhibition of PMA-induced ear edema at 0.5 mg/ear
Type: functional

Compound	Inhibition [%]
CC[C@H]1OC(=O)[C@H](C)[C@@H](O[C@H]2C[C@@](C)(OC)[C@@H](O)[C@H](C)O2)[C@H](C)[C@@H](O[C@H]2O[C@@H](C)C[C@@H](N(C)C(=O)CNCCC(C)C)[C@@H]2O)[C@](C)(O)C[C@@H](C)[C@H](O)[C@H](C)[C@@H](O)[C@]1(C)O	18
CC[C@H]1OC(=O)[C@H](C)[C@@H](O[C@H]2C[C@@](C)(OC)[C@@H](O)[C@H](C)O2)[C@H](C)[C@@H](O[C@H]2O[C@@H](C)C[C@@H](N(C)CCCNCc3nccs3)[C@@H]2O)[C@](C)(O)C[C@@H](C)[C@H](O)[C@H](C)[C@@H](O)[C@]1(C)O	74
CC[C@H]1OC(=O)[C@H](C)[C@@H](O)[C@H](C)[C@@H](O[C@H]2O[C@@H](C)C[C@@H](NCCNCCNCc3nccs3)[C@@H]2O)[C@](C)(O)C[C@@H](C)[C@H](O)[C@H](C)[C@@H](O)[C@]1(C)O	45
CC[C@H]1OC(=O)[C@H](C)[C@@H](O[C@H]2C[C@@](C)(OC)[C@@H](O)[C@H](C)O2)[C@H](C)[C@@H](O[C@H]2O[C@@H](C)C[C@@H](NCCNCCNCc3nccs3)[C@@H]2O)[C@](C)(O)C[C@@H](C)[C@H](O)[C@H](C)[C@@H](O)[C@]1(C)O	43
CC[C@H]1OC(=O)[C@H](C)[C@@H](O)[C@H](C)[C@@H](O[C@H]2O[C@@H](C)C[C@@H](N(C)C(C)=O)[C@@H]2O)[C@](C)(O)C[C@@H](C)[C@H](O)[C@H](C)[C@@H](O)[C@]1(C)O	66
CC[C@H]1OC(=O)[C@H](C)[C@@H](O[C@H]2C[C@@](C)(OC)[C@@H](O)[C@H](C)O2)[C@H](C)[C@@H](O[C@H]2O[C@@H](C)C[C@@H](N(C)C(=O)CNCCN(C)C)[C@@H]2O)[C@](C)(O)C[C@@H](C)[C@H](O)[C@H](C)[C@@H](O)[C@]1(C)O	31
CC[C@H]1OC(=O)[C@H](C)[C@@H](O[C@H]2C[C@@](C)(OC)[C@@H](O)[C@H](C)O2)[C@H](C)[C@@H](O[C@H]2O[C@@H](C)C[C@@H](N(C)C(=O)CNCCNCc3ccccc3)[C@@H]2O)[C@](C)(O)C[C@@H](C)[C@H](O)[C@H](C)[C@@H](O)[C@]1(C)O	87
CC[C@H]1OC(=O)[C@H](C)[C@@H](O[C@H]2C[C@@](C)(OC)[C@@H](O)[C@H](C)O2)[C@H](C)[C@@H](O[C@H]2O[C@@H](C)C[C@@H](N(C)C(=O)CNCc3ccccc3)[C@@H]2O)[C@](C)(O)C[C@@H](C)[C@H](O)[C@H](C)[C@@H](O)[C@]1(C)O	71
CC[C@H]1OC(=O)[C@H](C)[C@@H](O)[C@H](C)[C@@H](O[C@H]2O[C@@H](C)C[C@@H](N(C)CCCNCc3nccs3)[C@@H]2O)[C@](C)(O)C[C@@H](C)[C@H](O)[C@H](C)[C@@H](O)[C@]1(C)O	53
CC[C@H]1OC(=O)[C@H](C)[C@@H](O[C@H]2C[C@@](C)(OC)[C@@H](O)[C@H](C)O2)[C@H](C)[C@@H](O[C@H]2O[C@@H](C)C[C@@H](N(C)C(C)=O)[C@@H]2O)[C@](C)(O)C[C@@H](C)[C@H](O)[C@H](C)[C@@H](O)[C@]1(C)O	79
CC[C@H]1OC(=O)[C@H](C)[C@@H](O[C@H]2C[C@@](C)(OC)[C@@H](O)[C@H](C)O2)[C@H](C)[C@@H](O[C@H]2O[C@@H](C)C[C@@H](N(C)Cc3ccccc3)[C@@H]2O)[C@](C)(O)C[C@@H](C)[C@H](O)[C@H](C)[C@@H](O)[C@]1(C)O	58
CC[C@H]1OC(=O)[C@H](C)[C@@H](O[C@H]2C[C@@](C)(OC)[C@@H](O)[C@H](C)O2)[C@H](C)[C@@H](O[C@@H]2O[C@H](C)C[C@H](N(C)C)[C@H]2O)[C@](C)(O)C[C@@H](C)C(=O)[C@H](C)[C@@H](O)[C@]1(C)O [ERYTHROMYCIN]	42
